{"source": "paper PMC9017349", "about": "“Spiropyrimidinetriones: a Class of DNA Gyrase Inhibitors with Activity against Mycobacterium tuberculosis and without Cross-Resistance to Fluoroquinolones” (Antimicrobial Agents and Chemotherapy, 2022)", "key": {"[1]": {"tested_on": "M. tuberculosis Erdman pFCA-LuxAB (Erdman Lux)", "conditions": "BALB/c mice, 300 mg/kg p.o. daily, 12 days"}, "H37Rv (RecA)": {"tested_on": "H37Rv (RecA)", "assay_type": "cell-based, Mycobacterium tuberculosis"}, "[2]": {"tested_on": "iniB promoter reporter in M. tuberculosis H37Rv", "assay_type": "cell-based, Mycobacterium tuberculosis"}, "in vitro [3]": {"test": "in vitro", "conditions": "human, plasma", "excerpt": "(§1) Aiming to identify a compound to progress to in vivo efficacy studies, compounds were profiled for physicochemical properties, PK, and safety."}, "[4]": {"conditions": "for Average Conc. Found in plasma: infected BALB/c mice"}, "M. tuberculosis H37Rv [5]": {"tested_on": "M. tuberculosis H37Rv", "test": "microbe, parasite or virus in culture", "assay_type": "cell-based", "conditions": "Mycobacterium tuberculosis, read-out: MIC90, H37Rv"}, "[6]": {"tested_on": "recA promoter reporter in M. tuberculosis H37Rv", "assay_type": "cell-based, Mycobacterium tuberculosis"}, "[7]": {"biological_target": "M. tuberculosis DNA gyrase (Mycobacterium tuberculosis, UniProt P9WG45+P9WG47)", "sequence (P9WG45 whole entry)": "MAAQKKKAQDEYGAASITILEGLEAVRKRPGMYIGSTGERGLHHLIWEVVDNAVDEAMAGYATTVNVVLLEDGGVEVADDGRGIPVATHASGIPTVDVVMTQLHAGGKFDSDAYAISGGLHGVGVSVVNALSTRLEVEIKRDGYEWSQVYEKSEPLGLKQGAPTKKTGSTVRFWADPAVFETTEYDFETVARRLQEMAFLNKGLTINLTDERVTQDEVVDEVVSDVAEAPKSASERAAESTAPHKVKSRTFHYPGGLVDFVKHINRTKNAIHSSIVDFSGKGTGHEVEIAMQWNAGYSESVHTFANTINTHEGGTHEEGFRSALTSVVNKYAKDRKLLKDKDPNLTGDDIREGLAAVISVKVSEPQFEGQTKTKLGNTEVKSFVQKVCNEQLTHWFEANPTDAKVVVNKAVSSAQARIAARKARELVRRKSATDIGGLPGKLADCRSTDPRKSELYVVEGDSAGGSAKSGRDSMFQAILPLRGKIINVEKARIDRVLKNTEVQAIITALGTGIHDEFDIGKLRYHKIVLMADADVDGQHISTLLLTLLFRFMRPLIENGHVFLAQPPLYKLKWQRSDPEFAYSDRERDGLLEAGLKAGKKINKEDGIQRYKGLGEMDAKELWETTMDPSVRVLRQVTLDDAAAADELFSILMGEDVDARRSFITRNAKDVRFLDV", "sequence (P9WG47 whole entry)": "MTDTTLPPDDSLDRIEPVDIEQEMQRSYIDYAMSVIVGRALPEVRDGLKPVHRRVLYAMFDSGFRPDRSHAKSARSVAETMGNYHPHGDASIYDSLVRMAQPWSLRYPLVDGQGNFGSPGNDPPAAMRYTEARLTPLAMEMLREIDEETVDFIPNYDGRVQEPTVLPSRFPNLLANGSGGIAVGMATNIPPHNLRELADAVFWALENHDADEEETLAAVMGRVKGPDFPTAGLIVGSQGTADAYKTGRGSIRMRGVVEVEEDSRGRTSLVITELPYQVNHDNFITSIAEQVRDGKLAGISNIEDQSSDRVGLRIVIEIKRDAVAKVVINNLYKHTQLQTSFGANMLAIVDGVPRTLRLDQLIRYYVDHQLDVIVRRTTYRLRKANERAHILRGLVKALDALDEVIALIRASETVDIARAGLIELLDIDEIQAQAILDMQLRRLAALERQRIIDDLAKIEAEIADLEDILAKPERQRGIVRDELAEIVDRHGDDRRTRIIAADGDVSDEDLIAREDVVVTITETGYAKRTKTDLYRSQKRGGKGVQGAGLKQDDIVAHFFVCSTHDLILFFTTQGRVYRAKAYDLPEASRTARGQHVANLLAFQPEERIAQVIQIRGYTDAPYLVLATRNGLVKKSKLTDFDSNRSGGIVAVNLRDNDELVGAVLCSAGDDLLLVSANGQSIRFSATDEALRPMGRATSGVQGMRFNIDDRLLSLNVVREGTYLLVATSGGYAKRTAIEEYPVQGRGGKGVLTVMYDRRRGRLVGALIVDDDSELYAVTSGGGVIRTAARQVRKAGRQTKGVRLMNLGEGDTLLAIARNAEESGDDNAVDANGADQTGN", "test": "biochemical", "conditions": "read-out: IC50, DNA gyrase supercoiling"}, "in vivo [8]": {"test": "in vivo", "conditions": "male, mouse"}, "[9]": {"tested_on": "M. tuberculosis expressing DsRed in murine RAW 264.7 cells", "test": "microbe, parasite or virus in culture", "assay_type": "cell-based", "conditions": "for IC50: RAW 264.7, 72 h exposure, read-out: IC50, intracellular M. tuberculosis in murine macrophages"}, "in vitro [10]": {"test": "in vitro", "conditions": "mouse, plasma"}, "murine RAW 264.7 cells": {"tested_on": "murine RAW 264.7 cells", "assay_type": "cell-based", "conditions": "highest concentration tested"}, "physchem": {"test": "physchem", "conditions": "pH 6.5", "excerpt": "as §1"}, "M. tuberculosis Erdman": {"tested_on": "M. tuberculosis Erdman", "test": "microbe, parasite or virus in culture", "assay_type": "cell-based", "conditions": "Mycobacterium tuberculosis, read-out: MIC against the Erdman strain with 4% human serum albumin, 7H9 medium-ADC-glycerol plus 4% human serum albumin"}, "[11]": {"tested_on": "mouse lymphoma assay (micronucleation aberrations)", "conditions": "highest concentration tested; cited from earlier work"}, "N. gonorrhoeae": {"tested_on": "N. gonorrhoeae", "conditions": "cited from earlier work"}, "M. tuberculosis H37Rv [12]": {"tested_on": "M. tuberculosis H37Rv", "test": "MIC against M. tuberculosis H37Rv in 7H9 medium with various supplements", "assay_type": "cell-based, Mycobacterium tuberculosis", "conditions": "for MIC: Mycobacterium tuberculosis, H37RV"}, "S. aureus": {"tested_on": "S. aureus", "conditions": "cited from earlier work"}, "S. pneumoniae": {"tested_on": "S. pneumoniae", "conditions": "cited from earlier work"}, "M. tuberculosis H37Rv [13]": {"tested_on": "M. tuberculosis H37Rv", "test": "microbe, parasite or virus in culture", "assay_type": "cell-based", "conditions": "Mycobacterium tuberculosis, 168 h"}, "in vivo [14]": {"test": "in vivo", "conditions": "BALB/c, mouse, 300 mg/kg"}, "[15]": {"tested_on": "replicating M. tuberculosis H37Rv", "assay_type": "cell-based", "conditions": "1× MIC"}}, "note": "Values joined by “and” are separate entries in the source; they are usually repeats but may differ in a detail not shown here. Equal values may be shown once. Read-outs that look alike come from different tables or passages of the source."}
{"smiles": "Cc1nnc(-c2noc3c(F)c4c(cc23)CC2(C(=O)NC(=O)NC2=O)[C@H]2[C@H](C)O[C@H](C)CN42)o1", "note": "[Compound 22]", "values": [{"measurement": "tolerability", "setting": "[1]", "result": "generally well tolerated"}, {"measurement": "PrecA-LUX MIC", "setting": "H37Rv (RecA)", "result": "~ 3.9 μM"}, {"measurement": "bioluminescence response in PiniB-LUX assay", "setting": "[2]", "result": "none of the DNA gyrase inhibitors, including 22, elicited a strong bioluminescence response"}, {"measurement": "fraction unbound", "setting": "in vitro [3]", "result": 0.15}, {"measurement": "Found Concentration in plasma, single mice", "setting": "[4]; infected BALB/c mice A, B, C, 300 mg/kg QD, 1 hr post dose, 300 mg/kg", "result": "229000 ng/mL and 117000 ng/mL and 148000 ng/mL"}, {"measurement": "Average Conc. Found in plasma", "setting": "[4]; 300 mg/kg QD, 1 hr post dose", "result": 165000, "unit": "ng/mL"}, {"measurement": "Average Conc. Found in plasma", "setting": "[4]; 300 mg/kg QD, 24 hr post dose", "result": 6100, "unit": "ng/mL"}, {"measurement": "free drug concentration over the MIC", "setting": "[4]; predicted from PK in healthy mice, for over 8 h", "result": "about 2 fold"}, {"measurement": "MIC90", "setting": "M. tuberculosis H37Rv [5]", "result": 1, "unit": "µM"}, {"measurement": "concentration of maximal effect in PrecA-LUX assay", "setting": "[6]; at 7 days", "result": 0.4, "unit": "µM"}, {"measurement": "bioluminescence response in PrecA-LUX assay", "setting": "[6]; over 7 days", "result": "strong bioluminescence signal"}, {"measurement": "IC50", "setting": "[7]", "result": 2, "unit": "µM"}, {"measurement": "AUC(0-inf)", "setting": "in vivo [8]; iv, 2 mg/kg", "result": 2.37, "unit": "µg·h/mL"}, {"measurement": "Vd", "setting": "in vivo [8]; iv, 2 mg/kg", "result": 5.1, "unit": "L/kg"}, {"measurement": "clearance", "setting": "in vivo [8]; iv, 2 mg/kg", "result": 14.3, "unit": "mL/min/kg"}, {"measurement": "half-life", "setting": "in vivo [8]; iv, 2 mg/kg", "result": 3.7, "unit": "h"}, {"measurement": "AUC(0-inf)", "setting": "in vivo [8]; po, 20 mg/kg", "result": 24.6, "unit": "µg·h/mL"}, {"measurement": "Cmax", "setting": "in vivo [8]; po, 20 mg/kg", "result": 9.5, "unit": "µg/mL"}, {"measurement": "Tmax", "setting": "in vivo [8]; po, 20 mg/kg", "result": 1, "unit": "h"}, {"measurement": "bioavailability", "setting": "in vivo [8]; po, 20 mg/kg", "result": 104, "unit": "%"}, {"measurement": "AUC(0-inf)", "setting": "in vivo [8]; po, 100 mg/kg", "result": 343, "unit": "µg·h/mL"}, {"measurement": "Cmax", "setting": "in vivo [8]; po, 100 mg/kg", "result": 47, "unit": "µg/mL"}, {"measurement": "Tmax", "setting": "in vivo [8]; po, 100 mg/kg", "result": 2.8, "unit": "h"}, {"measurement": "AUC(0-inf)", "setting": "in vivo [8]; po, 300 mg/kg", "result": 1270, "unit": "µg·h/mL"}, {"measurement": "Cmax", "setting": "in vivo [8]; po, 300 mg/kg", "result": 133, "unit": "µg/mL"}, {"measurement": "Tmax", "setting": "in vivo [8]; po, 300 mg/kg", "result": 1, "unit": "h"}, {"measurement": "AUC(0-inf)", "setting": "in vivo [8]; po, 500 mg/kg", "result": 1440, "unit": "µg·h/mL"}, {"measurement": "Cmax", "setting": "in vivo [8]; po, 500 mg/kg", "result": 117, "unit": "µg/mL"}, {"measurement": "Tmax", "setting": "in vivo [8]; po, 500 mg/kg", "result": 0.83, "unit": "h"}, {"measurement": "macrophage IC50 higher than the average in vitro broth MIC", "setting": "[9]", "result": "less than 3 fold"}, {"measurement": "IC50", "setting": "[9]; Mycobacterium tuberculosis, RAW264.7, 72 h", "result": 6.3, "unit": "µM"}, {"measurement": "IC50", "setting": "[9]", "result": 6, "unit": "µM"}, {"measurement": "fraction unbound", "setting": "in vitro [10]", "result": 0.068}, {"measurement": "toxicity against the macrophage cell line", "setting": "murine RAW 264.7 cells", "result": "> 100", "unit": "µM"}, {"measurement": "solubility thermodynamic", "setting": "physchem", "result": 140, "unit": "µM"}, {"measurement": "MIC", "setting": "M. tuberculosis Erdman", "result": 16, "unit": "µM"}, {"measurement": "genotoxicity in the MLA", "setting": "[11]", "result": "no genotoxicity at the highest concentration tested"}, {"measurement": "MIC against N. gonorrhoeae", "setting": "N. gonorrhoeae", "result": 2.0, "unit": "µM"}, {"measurement": "antibacterial activity in culture lower than moxifloxacin", "setting": "M. tuberculosis H37Rv [12]", "result": 8, "unit": "fold"}, {"measurement": "MIC", "setting": "M. tuberculosis H37Rv [12]; read-out: MIC, ADC/GLU/TW", "result": 1.7, "unit": "µM"}, {"measurement": "MIC", "setting": "M. tuberculosis H37Rv [12]; read-out: MIC, DPPC/CAS/TX", "result": 5.2, "unit": "µM"}, {"measurement": "MIC", "setting": "M. tuberculosis H37Rv [12]; read-out: MIC, DPPC/Chol/BSA/TX", "result": 2.9, "unit": "µM"}, {"measurement": "MIC", "setting": "M. tuberculosis H37Rv [12]; read-out: MIC, GLU/BSA/TX", "result": 3, "unit": "µM"}, {"measurement": "MIC", "setting": "M. tuberculosis H37Rv [12]; read-out: MIC, GLU/CAS/TX", "result": 2.6, "unit": "µM"}, {"measurement": "MIC against S. aureus", "setting": "S. aureus", "result": 0.5, "unit": "µM"}, {"measurement": "MIC against S. pneumoniae", "setting": "S. pneumoniae", "result": 0.25, "unit": "µM"}, {"measurement": "MIC", "setting": "M. tuberculosis H37Rv [13]; H37Rv, 7 days, Middlebrook 7H9 with OADC and glycerol, read-out: MIC (dose-response)", "result": 7.26, "unit": "µM"}, {"measurement": "MBC", "setting": "M. tuberculosis H37Rv [13]; H37RV, CARA, transfer to charcoal agar, additional 7 days", "result": 15.6, "unit": "µM"}, {"measurement": "Cmax", "setting": "in vivo [14]", "result": "165 ± 58", "unit": "µg/mL"}, {"measurement": "time to 3-log kill", "setting": "[15]", "result": 7, "unit": "days"}]}
